The values that follow come from ChEMBL document CHEMBL4421722, “Inhibitors of protein prenyltransferases” (2013).

For this experiment, the species on record is Rattus norvegicus. Put plainly: Inhibition of rat recombinant geranylgeranyltransferase type I expressed in Escherichia coli assessed as residual enzyme activity for geranylgeranylation of K-Ras4B at 50 uM incubated for 30 mins in presence of [3H]GGPP by scintillation counting assay relative to control.
As to `COc1cccc([C@@H]2CC=C(C(C)=O)CN2S(=O)(=O)c2ccc(C)cc2)c1`, the Activity came out at 85%.

For `C=CCS[C@@H]1C[C@@H](c2ccc(OC)cc2)N(S(=O)(=O)c2ccccc2C)C[C@H]1C(=O)O`, the Activity turned out to be 65.1%.

With `CCCCS[C@@H]1C[C@@H](c2ccc(OC)c(OC)c2)N(S(=O)(=O)c2ccc(C)cc2)C[C@H]1C(=O)O`, the Activity was 114%.

As for `Cc1ccc([C@@H]2CC=C(C(=O)O)[C@H](c3cccc(C)c3)N2S(=O)(=O)c2ccc(C)cc2)cc1`, the Activity was 66.3%.

`COc1ccc([C@@H]2CC=C(C(=O)O)[C@H](c3ccc(F)cc3)N2S(=O)(=O)c2ccc(C)cc2)cc1`: the Activity came to 72.9%.

`CCOc1ccc([C@@H]2C[C@@H](Sc3ccc(OC)cc3)[C@H](C(=O)O)CN2S(=O)(=O)c2ccc(C)cc2)cc1`: the Activity is 79.1%.

On to `CS(=O)(=O)N1[C@@H](c2cccc(Br)c2)C(C(=O)O)=CC[C@H]1c1ccc(Cl)cc1`, for which the Activity was 50.4%.

Take `CCS[C@@H]1C[C@@H](c2cccc(Br)c2)N(S(=O)(=O)c2ccc(C)cc2)C[C@H]1C(=O)O`: the Activity turned out to be 82.7%.

On to `Cc1ccc(S(=O)(=O)N2[C@@H](c3cccc(Cl)c3)C(C(=O)O)=CC[C@H]2c2ccccc2)cc1`, for which the Activity stood at 71.3%.

`Cc1ccc([C@@H]2CC=C(C(=O)O)[C@H](c3ccc(Cl)cc3)N2S(=O)(=O)c2ccc(C)cc2)cc1`: the Activity was 67.4%.

For `Cc1ccc(S(=O)(=O)N2[C@@H](c3ccc(F)cc3)C(C(=O)O)=CC[C@H]2c2cccc(C)c2)cc1`, the Activity is 71.2%.

On to `CCOc1ccc([C@@H]2C[C@@H](SCC)[C@H](C(=O)O)CN2S(=O)(=O)c2ccc(C)cc2)cc1`, for which the Activity was 87.1%.

As for `Cc1ccc(S(=O)(=O)N2[C@@H](c3ccc(C(C)(C)C)cc3)C(C(=O)O)=CC[C@H]2c2ccc(F)cc2)cc1`, the Activity worked out at 85.1%.

As for `CCCCCCS[C@@H]1C[C@@H](c2ccc(C)cc2)N(S(C)(=O)=O)C[C@H]1C(=O)O`, the Activity came to 83.1%.

With `Cc1ccc(S(=O)(=O)N2[C@@H](c3cccc(Br)c3)C(C(=O)O)=CC[C@H]2c2ccccc2)cc1`, the Activity amounted to 65.9%.

As for `COc1ccc(S[C@@H]2C[C@@H](c3cccc(Cl)c3)N(S(=O)(=O)c3ccc(C)cc3)C[C@H]2C(=O)O)cc1`, the Activity was found to be 93.3%.

On to `COc1ccc([C@@H]2CC=C(C(=O)O)[C@H](c3ccc(C(C)(C)C)cc3)N2S(=O)(=O)c2ccc(Cl)cc2)cc1`, for which the Activity amounted to 68.5%.

`O=C(O)C1=CC[C@@H](c2ccc(Cl)cc2)N(S(=O)(=O)c2ccc(Cl)cc2)[C@H]1c1ccc(F)cc1`: the Activity worked out at 43.5%.

As to `CCS[C@@H]1C[C@@H](c2cccc(Cl)c2)N(S(=O)(=O)c2ccc(C)cc2)C[C@H]1C(=O)O`, the Activity was determined as 75.7%.

Turning to `CCOc1ccc([C@@H]2CC=C(C(=O)O)[C@H](c3cccc(Cl)c3)N2S(=O)(=O)c2ccc(C)cc2)cc1`, the Activity worked out at 78.9%.

For the compound `C=CCS[C@@H]1C[C@@H](c2ccc(OC)c(OC)c2)N(S(=O)(=O)c2ccc(C)cc2)C[C@H]1C(=O)O`, the Activity came to 109%.

Turning to `CCCCCS[C@@H]1C[C@@H](c2ccc(Cl)cc2)N(S(=O)(=O)c2ccc(C)cc2)C[C@H]1C(=O)O`, the Activity was 59.8%.

On to `CCOc1ccc([C@@H]2C[C@@H](SCCC(C)C)[C@H](C(=O)O)CN2S(=O)(=O)c2ccc(C)cc2)cc1`, for which the Activity was found to be 95.9%.

With `CCCCCS[C@@H]1C[C@@H](c2ccc(C)cc2)N(S(C)(=O)=O)C[C@H]1C(=O)O`, the Activity came to 107%.

As to `CCc1ccc([C@@H]2CC=C(C(=O)O)[C@H](c3cccc(Cl)c3)N2S(=O)(=O)c2ccc(C)cc2)cc1`, the Activity is 73.6%.

Consider `CCCS[C@@H]1C[C@@H](c2ccc(C)cc2)N(S(=O)(=O)c2ccc(C)cc2)C[C@H]1C(=O)O`, for which the Activity came out at 69.8%.

Consider `C=CCS[C@@H]1C[C@@H](c2ccc(C)cc2)N(S(=O)(=O)c2ccccc2C)C[C@H]1C(=O)O`, for which the Activity amounted to 34.5%.

With `CCCS[C@@H]1C[C@@H](c2ccc(C)cc2)N(S(=O)(=O)c2ccc(Cl)cc2)C[C@H]1C(=O)O`, the Activity was 83.2%.

Consider `Cc1ccc([C@H]2C(C(=O)O)=CC[C@@H](c3ccc(C)cc3)N2S(=O)(=O)c2ccc(C)cc2)cc1`, for which the Activity was 73.6%.

With `Cc1ccc([C@H]2C(C(=O)O)=CC[C@@H](c3ccc(C)cc3)N2S(=O)(=O)c2ccccc2C)cc1`, the Activity was 88.3%.

Consider `Cc1ccc(S(=O)(=O)N2[C@@H](c3ccc(F)cc3)C(C(=O)O)=CC[C@H]2c2ccccc2F)cc1`, for which the Activity was 56%.

Regarding `CCS[C@@H]1C[C@@H](c2ccc(C)cc2)N(S(=O)(=O)c2ccc(Cl)cc2)C[C@H]1C(=O)O`, the Activity came out at 58.3%.

Take `Cc1ccc(S(=O)(=O)N2[C@@H](c3cccc(C)c3)C(C(=O)O)=CC[C@H]2c2ccccc2)cc1`: the Activity was found to be 64.9%.

Turning to `Cc1ccc([C@@H]2C[C@@H](SCCC(C)C)[C@H](C(=O)O)CN2S(=O)(=O)c2ccccc2)cc1`, the Activity was 79.3%.

Turning to `COc1cc([C@@H]2C[C@@H](Sc3ccccc3)[C@H](C(=O)O)CN2S(=O)(=O)c2ccc(C)cc2)cc(OC)c1OC`, the Activity is 83.7%.

On to `CS(=O)(=O)N1[C@@H](c2ccc(Cl)cc2)C(C(=O)O)=CC[C@H]1c1ccc(Cl)cc1`, for which the Activity amounted to 55%.

With `Cc1ccc([C@@H]2CC=C(C(=O)O)[C@H](c3ccc(F)cc3)N2S(=O)(=O)c2ccc(Cl)cc2)cc1`, the Activity was 60%.

Turning to `CCCCCCS[C@@H]1C[C@@H](c2ccc(OC)cc2)N(S(=O)(=O)c2ccccc2)C[C@H]1C(=O)O`, the Activity stood at 96.2%.

In the case of `Cc1ccc([C@@H]2CC=C(C(=O)O)[C@H](c3ccc(F)cc3)N2S(=O)(=O)c2ccccc2)cc1`, the Activity was found to be 68.1%.

With `CCCCS[C@@H]1C[C@@H](c2ccc(C)cc2)N(S(C)(=O)=O)C[C@H]1C(=O)O`, the Activity came to 104%.

As to `CCOc1ccc([C@@H]2CC=C(C(=O)O)[C@H](c3ccc(C(C)(C)C)cc3)N2S(=O)(=O)c2ccc(C)cc2)cc1`, the Activity was 58.7%.

Take `Cc1ccc(S(=O)(=O)N2C[C@@H](C(=O)O)[C@H](SCCC(C)C)C[C@H]2c2ccc(Cl)cc2)cc1`: the Activity is 39.4%.

In the case of `CCOc1ccc([C@@H]2C[C@@H](SCc3ccc(C(C)(C)C)cc3)[C@H](C(=O)O)CN2S(=O)(=O)c2ccc(C)cc2)cc1`, the Activity stood at 46%.

In the case of `CCCCCCS[C@@H]1C[C@@H](c2ccc(C)cc2)N(S(=O)(=O)c2ccccc2)C[C@H]1C(=O)O`, the Activity is 81.2%.

Consider `COc1ccc([C@@H]2C[C@@H](SCC(C)C)[C@H](C(=O)O)CN2S(=O)(=O)c2ccccc2)cc1`, for which the Activity was determined as 70.2%.

In the case of `Cc1ccc(S(=O)(=O)N2[C@@H](c3ccc(Cl)cc3)C(C(=O)O)=CC[C@H]2c2ccccc2)cc1`, the Activity worked out at 69.7%.

Consider `COc1ccc(S[C@@H]2C[C@@H](c3ccc4c(c3)OCO4)N(S(=O)(=O)c3ccc(C)cc3)C[C@H]2C(=O)O)cc1`, for which the Activity was 100%.

Turning to `Cc1ccc(S(=O)(=O)N2[C@@H](c3ccc(F)cc3)C(C(=O)O)=CC[C@H]2c2ccc(C#N)cc2)cc1`, the Activity is 65.1%.

As for `CCOc1ccc([C@@H]2CC=C(C(=O)O)[C@H](c3ccc(Cl)cc3)N2S(=O)(=O)c2ccc(C)cc2)cc1`, the Activity was determined as 71.6%.

With `CCc1ccc([C@@H]2CC=C(C(=O)O)[C@H](c3cccc(F)c3)N2S(=O)(=O)c2ccc(C)cc2)cc1`, the Activity stood at 55%.

Turning to `CCS[C@@H]1C[C@@H](c2ccc(OC)c(OC)c2)N(S(=O)(=O)c2ccc(C)cc2)C[C@H]1C(=O)O`, the Activity was 74.4%.
